Results from patent US5250700A, “Phenyl pyrazolidinones as bronchodilators and anti-inflammatory agents” (American Home Products Corporation, priority 1992, dated 1993).
Where a name gives a salt, the structure may show the parent alone.

These molecules were tested on PDE IV (assay: Inhibition of PDE IV isolated from canine tracheal muscle (cAMP metabolism)). Settings: at 10^-5 (concentration unit not given); percentage of the reduction induced by 10 μM rolipram; canine trachealis PDE IV.
Assay type: biochemical
Procedure: The following assay is employed to assess the ability of the compound of the invention to inhibit PDE IV. A solution containing PDE IV is prepared from canine tracheal muscle as follows: The dog is euthanized with an overdose of euthanasia while under anesthesia induced by a 33 mg/kg IV bolus of Nembutal. The trachealis muscle is removed, cleaned of connective tissue, and minced thoroughly. Three to four grams of tissue is then homogenized in Trim-HCl buffer (pH 7.8) using a Polytron. The homogenate is then centrifuged at 25,000×g (4° C.) for 30 minutes. The supernatant is decanted and filtered through four layers of gauze, and applied to a 40 cm×2 cm DEAE-Sepharose column that is equilibrated with Trim-HCl buffer (pH 7.8). The column is then washed with an additional 240 mL of buffer to remove unbound proteins. […] Each fraction is assayed for cAMP- and cGMP- metabolizing PDE activity. Fractions eluting at approximately 0.6 M Na-acetate, and containing CAMP but not CGMP metabolic activity are pooled and used as a PDE stock solution for assaying PDE IV inhibitory activity. […] CI-930 is included as an inhibitor of the cyclic GMP-sensitive, cyclic AMP-selectivePDE (PDE III) that is also present in the PDE IV stock solution when prepared as described above.

Q: How did the “inhibition of PDE IV (percentage)” value turn out when `COc1ccc(C2CC(=O)N(C(=O)Nc3ccccc3)N2C)cc1OC1CCCC1` (centres unmarked) [Example 16, 3-[3-(cyclopentyloxy)-4-methoxyphenyl-2-methyl-5-oxo-N-phenyl-1-pyrazolidinecarboxamide hydrochloride] was run?
A: 48%

Q: How did the “inhibition of PDE IV (percentage)” value turn out when `COc1ccc(C2CC(=O)NN2CC(=O)O)cc1OC1CCCC1` (centres unmarked) [Example 7] was run?
A: 39%

Q: How did the “inhibition of PDE IV (percentage)” value turn out when `COc1ccc(C2CC(=O)NN2C(N)=O)cc1OC1CCCC1` (centres unmarked) [Example 5, 5-[3-(Cyclopentyloxy)-4-methoxyphenyl]-3-oxo-1-pyrazolidinecarboxamide] was run?
A: 39%

Q: With `COC(=O)N1NC(=O)CC1c1ccc(OC)c(OC2CCCC2)c1` (centres unmarked) [Example 6, 5-[3-(Cyclopentyloxy)-4-methoxyphenyl]-3-oxo-1-pyrazolidinecarboxylic acid methyl ester] as the molecule, how does the “inhibition of PDE IV (percentage)” value read?
A: 52%

Same assay, conditions: canine trachealis PDE IV, 1 μM 3H-cAMP, 10 μM CI-930, 30° C., pH 7.8; reduction expressed relative to 10 μM rolipram

Q: For `COc1ccc(C2CC(=O)N(C)N2C)cc1OC1CCCC1` (centres unmarked) [Example 3, 5-[3-(Cyclopentyloxy)-4-methoxyphenyl]-1,2-dimethyl-3-pyrazolidinone, hydriodide], which IC50 is on record?
A: 0.82 µM

Q: With `COC(=O)CN1NC(=O)CC1c1ccc(OC)c(OC2CCCC2)c1` (centres unmarked) [Example 4, 5-[3-(Cyclopentyloxy)-4-methoxylphenyl]-3-oxo-1-pyrazolidineacetic acid methyl ester] as the molecule, how does the IC50 read?
A: 0.44 µM

Q: With `COc1ccc(C2CC(=O)N(C(C)=O)N2C)cc1OC1CCCC1` (centres unmarked) [Example 31, 2-acetyl-5-[3-(cyclopentyloxy)-4-methoxyphentyl]-1-methyl-3-pyrazolidinone hydrochloride] as the molecule, how does the IC50 read?
A: 0.98 µM

Q: Which IC50 does the source give for `COc1ccc(CNC(=S)N2C(=O)CC(c3ccc(OC)c(OC4CCCC4)c3)N2C)cc1` (centres unmarked) [Example 21, 3-[3-(cyclopentyloxy)-4-methoxyphenyl]-N-[(4-methoxyphenyl)methyl]-2-methyl-5-oxo-1-pyrazolidinecarbothioamide] here?
A: 0.053 µM

Q: For `COc1ccc(C2CC(=O)N(C(=O)c3cccnc3)N2C)cc1OC1CCCC1` (centres unmarked) [Example 32, 5-[3-(cyclolpentyloxy)-4-methoxyphenyl]-1-methyl-2-(3-pyridinylcarbonyl)-3-pirazolidinone hemihydrate], which IC50 is on record?
A: 0.34 µM

Q: Which IC50 does the source give for `COc1ccc(C2CC(=O)N(CCCc3cccnc3)N2C)cc1OC1CCCC1` (centres unmarked) [Example 29, 5-[3(cyclopentyloxy)-4-methoxyphenyl]-1-methyl-2-[3-(3-pyridinyl)propyl]-3-pyrazolidinone quarter dichloromethane] here?
A: 0.16 µM

Q: Which IC50 does the source give for `COc1ccc(C2CC(=O)N(Cc3cccnc3)N2C)cc1OC1CCCC1` (centres unmarked) [Example 25, 5-[3-(cyclopentyloxy)-4-methoxyphenyl]-1-methyl-2-(3-pyridinylmethyl)-3-pyrazolidinone hydrochloride dehydrate] here?
A: 1.5 µM

Q: How did the IC50 turn out when `COc1ccc(C2CC(=O)NN2Cc2ccccc2)cc1OC1CCCC1` (centres unmarked) [Example 34, 5-[3-(cyclopentyloxy)-4-methoxyphenyl]-1-(phenylmethyl)-3-pyrazolidinone] was run?
A: 0.058 µM

Q: How did the IC50 turn out when `COc1ccc(C2CC(=O)N(C(=O)NCCCN3CCCC3=O)N2C)cc1OC1CCCC1` (centres unmarked) [Example 38, 3-(3-Cyclopentyloxy-4-methoxyphenyl)-2-methyl-5-oxo-pyrazolidine-1-carboxylic acid 3-(2-oxo-pyrrolidin-1-yl) propylamide] was run?
A: 0.56 µM

Q: For `COc1ccc(C2CC(=O)N(C(=O)/C=C/c3cncc(Br)c3)N2C)cc1OC1CCCC1` (centres unmarked) [Example 33], which IC50 is on record?
A: 0.081 µM

Q: For `COc1ccc(C2CC(=O)NN2)cc1OC1CCCC1` (centres unmarked) [Example 1, 5-[3-(Cyclopentyloxy)-4-methoxyphenyl]-3-pyrazolidinone], which IC50 is on record?
A: 0.34 µM

Q: For `COc1ccc(C2CC(=O)N(C(N)=O)N2Cc2ccccc2)cc1OC1CCCC1` (centres unmarked) [Example 23], which IC50 is on record?
A: 0.32 µM

Q: `COc1ccc(-c2cc(=O)[nH]n2C)cc1OC1CCCC1` [Example 10, 5-[3-(cyclopentyloxy)-4-methoxyphenyl]-1,2-dihydro-1-methyl-3H-pyrazol-3-one] was tested. Which IC50 did it give?
A: 0.31 µM

Q: With `COc1ccc(-c2cc(=O)n(C(N)=O)n2C)cc1OC1CCCC1` [Example 11, 3-[3-(cyclopentyloxy)-4-methoxylphenyl]-2.5-dihydro-2-methyl-5-oxo-1H-pyrazole-1-carboxamide] as the molecule, how does the IC50 read?
A: 0.38 µM

Q: With `COc1ccc(C2CC(=O)N(C(=O)NCc3cccs3)N2C)cc1OC1CCCC1` (centres unmarked) [Example 39, 3-(3-Cyclopentyloxy-4-methoxyphenyl)-2-methyl-5-oxo-pyrazolidine-1-carboxylic acid thiophen-2-yl methylamide] as the molecule, how does the IC50 read?
A: 0.15 µM

Q: Which IC50 does the source give for `CCNC(=O)N1C(=O)CC(c2ccc(OC)c(OC3CCCC3)c2)N1C` (centres unmarked) [Example 15, 3-[3-(cyclopentyloxy)-4-methoxylphenyl]-N-ethyl-2-methyl-5-oxo-1-pyrazolidinecarboxamide hydrochloride, hydrate] here?
A: 0.049 µM

Q: Which IC50 does the source give for `CNC(=O)N1C(=O)CC(c2ccc(OC)c(OC3CCCC3)c2)N1C` (centres unmarked) [Example 9, 3-F3-(Cyclopentyloxy)-4-methoxyphenyl]-2-methyl-5-oxo-N-methyl-1-pyrazolidinecarboxamide, hemihidrate] here?
A: 0.46 µM

Q: `COc1ccc(C2CC(=O)N(C(=O)c3cncc(Br)c3)N2C)cc1OC1CCCC1` (centres unmarked) [Example 28, 5-[3-(cyclopentyloxy)-4-methoxyphenyl]-1-methyl-2-(5-bromo-3-pyridinylcarbonyl)-3-pyrazolidinone] was tested. Which IC50 did it give?
A: 0.35 µM

Q: With `COc1ccc(C2CC(=O)N(C(=O)NCCN3CCOCC3)N2C)cc1OC1CCCC1` (centres unmarked) [Example 41, 3-(3-Cyclolpentyloxy-4-methoxyphenyl)-2-methyl-5-oxo-pyrazolidine-1-carboxylic acid 2-morlpholin-4-yl ethylamide] as the molecule, how does the IC50 read?
A: 2.4 µM

Q: How did the IC50 turn out when `COc1ccc(-c2cc(=O)n(C(=O)NCc3ccccn3)n2C)cc1OC1CCCC1` [Example 12, 3-[3-(cyclopentyloxy)-4-methoxyphenyl]-2.5-dihydro-2-methyl-5-oxo-N-(2-pyridinylmethyl)-1H-pyrazole-1-carboxamide] was run?
A: 0.42 µM

Q: Which IC50 does the source give for `COc1ccc(C2CC(=O)N(C(=O)NCc3cccnc3)N2C)cc1OC1CCCC1` (centres unmarked) [Example 24, 3-[3-(cyclopentyloxy)-4-methoxyphenyl]-2-methyl-5-oxo-N-(3-pyridinylmethyl)-1-pyrazolidine carboxamide] here?
A: 0.085 µM

Q: How did the IC50 turn out when `COc1ccc(C2CC(=O)N(C/C=C/c3cncc(Br)c3)N2C)cc1OC1CCCC1` (centres unmarked) [Example 30, 2-[(E)-3-(5-bromo-3-pyridinyl)-2-propenyl]-5-[3-(cyclopentyloxy)-4-methoxyphenyl]-1-methyl-3-pyrazolidinone hemi(dichloromethane)] was run?
A: 0.05 µM

Q: Which IC50 does the source give for `CCCCCCCN1C(=O)CC(c2ccc(OC)c(OC3CCCC3)c2)N1C` (centres unmarked) [Example 26, 5-[3-(cyclopentyloxy)-4-methoxyphenyl-2-heptyl-1-methyl-3-pirazolidinone hydrochloride] here?
A: 0.17 µM

Q: `COc1ccc(C2CC(=O)N(C(=O)Nc3ccc(F)cc3)N2C)cc1OC1CCCC1` (centres unmarked) [Example 22] was tested. Which IC50 did it give?
A: 0.21 µM

Q: `COc1ccc(C2CC(=O)N(C(=O)NN3CCOCC3)N2C)cc1OC1CCCC1` (centres unmarked) [Example 37, 3-(3-Cyclolpentyloxy-4-methoxyphenyl)-2-methyl-5-oxo-pyrazolidine-1-carboxylic acid morilholin-4-ylamide] was tested. Which IC50 did it give?
A: 3.2 µM

Q: With `COc1ccc(C2CC(=O)N(C(=O)NCCCn3ccnc3)N2C)cc1OC1CCCC1` (centres unmarked) [Example 42, 3-(3-Cyclopentyloxy-4-methoxyphenyl)-2-methyl-5-oxo-pyrazolidine-1-carboxylic acid 3-imidazol-1-yl propylamide] as the molecule, how does the IC50 read?
A: 0.21 µM

Q: Which IC50 does the source give for `CCCCNC(=O)N1C(=O)CC(c2ccc(OC)c(OC3CCCC3)c2)N1C` (centres unmarked) [Example 14, N-butyl-3-f3-(cyclopentyloxy)-4-methoxyphenyl]-2-methyl-5-oxo-1-pyrazolidinecarboxamide hydrochloride] here?
A: 0.26 µM

Q: Which IC50 does the source give for `COc1ccc(C2CC(=O)N(C(=O)NCc3ccccc3)N2C)cc1OC1CCCC1` (centres unmarked) [Example 17, 3-[3-(cyclopentyloxy)-4-methoxyphenyl]-2-methyl-5-oxo-N-(phenylmethyl)-1-pyrazolidinecarboxamide hydrochloride] here?
A: 0.036 µM

Q: With `COc1ccc(C2CC(=O)N(C(=O)N[C@@H](C)c3cccc4ccccc34)N2C)cc1OC1CCCC1` (single isomer, unassigned) [13 A] as the molecule, how does the IC50 read?
A: 0.012 µM

Q: Which IC50 does the source give for `COc1ccc(NC(=O)N2C(=O)CC(c3ccc(OC)c(OC4CCCC4)c3)N2C)cc1` (centres unmarked) [Example 19, 3-[3-(cyclopentyloxy)-4-methoxyphenyl]-N-(4-methoxyphenyl)-2-methyl-5-oxo-1-pyrazolidinecarboxamide] here?
A: 0.12 µM

Q: `COc1ccc(C2CC(=O)N(C(=S)NCc3ccc(F)cc3)N2C)cc1OC1CCCC1` (centres unmarked) [Example 20, 3-[3-(cyclopentyloxy)-4-methoxyphenyl]-N-[(4-fluorophenyl)-methyl]-2-methyl-5-oxo-1-pyrazolidinecarbothioamide] was tested. Which IC50 did it give?
A: 0.065 µM

Q: How did the IC50 turn out when `COc1ccc(C2CC(=O)NN2C)cc1OC1CCCC1` (centres unmarked) [Example 2, 5-[3--(Cyclopentyloxy)-4-methoxyphenyl]-1-methyl-3-pyrazolidinone] was run?
A: 0.68 µM

Q: With `CCN1NC(=O)CC1c1ccc(OC)c(OC2CCCC2)c1` (centres unmarked) [Example 35, 5-[3-(cyclopentyloxy)-4-methoxyphenyl]-1-ethyl-3-pyrazolidinone] as the molecule, how does the IC50 read?
A: 4.1 µM

Q: With `COc1ccc(C2CC(=O)N(C(=O)N[C@@H](C)c3cccc4ccccc34)N2C)cc1OC1CCCC1` (single isomer, unassigned) [13 B] as the molecule, how does the IC50 read?
A: 0.018 µM
